In patent publication US10266544B2, “Aryl substituted aminomethyl spectinomycin analogs as antibacterial agents” (ST. JUDE CHILDREN'S RESEARCH HOSPITAL, INC., priority 2013, dated 2019):
Structures can show the parent of a compound that is named as a salt. Where two headings read alike, the source gives them in different places.

What was measured:
Type in all cases: cell-based
[1] = test system: Legionella pneumophila (ATCC 33153); experiment: microbe, parasite or virus in culture; conditions: ATCC33153, 72 h, read-out: Zone of inhibition L.p.
[2] = test system: Neisseria gonorrhoeae (ATCC 49226); experiment: Agar MIC determination (Alamar Blue); conditions: ATCC49226, agar MIC, read-out: MIC N.g.
[3] = test system: acinetobacter baumannii (ATCC 19606); experiment: MIC determination, microbroth dilution; conditions: ATCC19606
[4] = test system: Neisseria meningitides (ATCC 13077); experiment: Disc diffusion assay; conditions: ATCC13077, 4 μg per disc, read-out: Zone of inhibition N.m.
[5] = test system: Burkholderia cepacia (ATCC 25416); experiment: MIC determination, microbroth dilution; conditions: Burkholderia cepacia
[6] = test system: Bacillus anthracis, Sterne 34F2; experiment: microbe, parasite or virus in culture; conditions: STERNE34F2, read-out: MIC B.a.
Bacillus anthracis = experiment: microbe, parasite or virus in culture; conditions: read-out: MIC B.a.
[7] = test system: Escherichia coli (ATCC 700926); experiment: MIC determination, microbroth dilution; conditions: ATCC700926; Escherichia coli (ATCC 700926); read-out: MIC E.c.
E. coli K12 ΔtolC = experiment: microbe, parasite or virus in culture; conditions: Escherichia coli, read-out: MIC E.c. Δtolc
[8] = test system: Bacillus subtilis (ATCC 23857); experiment: MIC determination, microbroth dilution; conditions: ATCC23857; Bacillus subtilis (ATCC 23857); read-out: MIC B.s.
[9] = test system: MRSA, Staphylococcus aureus (NRS70); experiment: MIC determination, microbroth dilution; conditions: read-out: MIC MRSA
[10] = test system: Proteus vulgaris (ATCC 33420); experiment: MIC determination, microbroth dilution; conditions: ATCC33420
[11] = test system: Neisseria gonorrhoeae (ATCC 49226); experiment: Disc diffusion assay; conditions: ATCC49226, 4 μg per disc, read-out: Zone of inhibition N.g.
[12] = test system: Enterococcus faecalis (ATCC 33186); experiment: MIC determination, microbroth dilution
Listeria monocytogenes = experiment: MIC determination (Table 6)
[13] = test system: Streptococcus pneumoniae (R6); experiment: MIC determination, microbroth dilution; conditions: read-out: MIC S. pn.
[14] = test system: Staphylococcus aureus (ATCC 29213); experiment: MIC determination, microbroth dilution; conditions: ATCC29213; Staphylococcus aureus (ATCC 29213); read-out: MIC S.a.
[15] = test system: Haemophilus influenza (ATCC 49247); experiment: microbe, parasite or virus in culture; conditions: ATCC49247; Haemophilus influenza; 4 μg per disc; range of at least two experiments; read-out: Zone of inhibition H.i.
[16] = test system: Stenotrophomonas maltophilia (ATCC 13637); experiment: MIC determination, microbroth dilution; conditions: ATCC13637; Stenotrophomonas maltophilia (ATCC 13637); read-out: MIC S.m.
[17] = test system: Proteus mirabilis (ATCC 25933); experiment: MIC determination, microbroth dilution; conditions: ATCC25933
[18] = test system: Pseudomonas aeruginosa (PA01); experiment: MIC determination, microbroth dilution
[19] = test system: M. tuberculosis clinical isolates; experiment: microbe, parasite or virus in culture; conditions: Mycobacterium tuberculosis, H37RV, read-out: MIC H37Rv
[20] = test system: Klebsiella pneumoniae (ATCC 33495); experiment: MIC determination, microbroth dilution; conditions: ATCC33495
Moraxella catarrhalis = experiment: MIC determination (Table 6)
[21] = test system: Streptococcus pyogenes (ATCC 700294); experiment: MIC determination, microbroth dilution; conditions: ATCC700294; Streptococcus pyogenes (ATCC 700294); read-out: MIC S. py.
[22] = ATCC25416, read-out: MIC B.c., Burkholderia cepacia (ATCC 25416)
[23] = ATCC25416, read-out: MIC B.c., Burkholderia cepacia, Table 6
[24] = ATCC33186, Enterococcus faecalis (ATCC 33186), read-out: MIC E.f.

Row | Compound | MIC [2] [µg/mL] | MIC [3] [µg/mL] | zone of inhibition at 4 µg/disc [4] [mm] | MIC [5, 22] [µg/mL] | MIC [5, 23] [µg/mL] | MIC [6] [µg/mL] | MIC (Bacillus anthracis) [µg/mL] | MIC [7] [µg/mL] | MIC (E. coli K12 ΔtolC) [µg/mL] | MIC [8] [µg/mL] | MIC [10] [µg/mL] | MIC (Listeria monocytogenes) [µg/mL] | MIC [14] [µg/mL] | zone of inhibition at 4 µg/disc [15] [mm] | MIC [16] [µg/mL] | MIC [17] [µg/mL] | MIC [18] [µg/mL] | MIC [19] [µg/mL] | MIC [20] [µg/mL] | MIC (Moraxella catarrhalis) [µg/mL] | further results
1 | CN[C@@H]1[C@H](O)[C@H](NC)[C@H]2O[C@]3(O)[C@H](O[C@@H]2[C@H]1O)O[C@H](C)C[C@@]3(O)CNCc1ccc(C(F)(F)F)cc1 [compound 5, 3′-(R)-3′-[(4-trifluoromethyl)benzylaminomethyl)]dihydrospectinomycin Trihydrochloride] | 100 | ≥ 200 | 21 | 100 | 100 | 25 to 50 | 25 to 50 | 50 | 6.3 to 12.5 | 6.3 | > 200 | 12.5 | 50 | 17 to 18 | 25 | > 200 | 200 | 25 | 100 | 3.1 to 6.3 | zone of inhibition at 4 µg/disc [1]: 27 to 28 mm; MIC ([9]; Staphylococcus aureus (NRS70)): 25 µg/mL; zone of inhibition at 4 µg/disc [11]: 18 mm; MIC [12, 24]: 12.5 to 25 µg/mL; MIC ([13]; Streptococcus pneumoniae (R6)): 1.6 µg/mL; MIC [21]: 1.6 µg/mL
2 | CN[C@@H]1[C@H](O)[C@H](NC)[C@H]2O[C@]3(O)[C@H](O[C@@H]2[C@H]1O)O[C@H](C)C[C@@]3(O)CNCc1cccnc1 [compound 7, 3′-(R)-3′-(3-pyridinylmethylaminomethyl)dihydrospectinomycin Tetrahydrobromide] | 200 | ≥ 200 | 9 | ≥ 200 | ≥ 200 | 100 | 100 | 50 | 12.5 to 25 | 100 | > 200 | 25 | ≥ 200 | 7 | 100 | > 200 | > 200 | 50 to 100 | > 200 | 6.3 | zone of inhibition at 4 µg/disc [1]: 42 mm; MIC ([9]; Staphylococcus aureus (NRS70)): > 200 µg/mL; zone of inhibition at 4 µg/disc [11]: 7 mm; MIC [12, 24]: 200 µg/mL; MIC ([13]; Streptococcus pneumoniae): 12.5 to 25 µg/mL; MIC [21]: 25 µg/mL
3 | CN[C@@H]1[C@H](O)[C@H](NC)[C@H]2O[C@]3(O)[C@H](O[C@@H]2[C@H]1O)O[C@H](C)C[C@@]3(O)CNCc1ccc(Cl)cc1 [compound 18, 3′-(R)-3′-(4-Chlorobenzylaminomethyl)dihydrospectinomycin Trihydrobromide] | 25 | > 200 | 16 to 18 | 100 to 200 | 100 to 200 | 25 | 25 | 12.5 to 25 | 3.1 to 6.3 | 3.1 | 100 to 200 | 6.3 | 25 to 50 | 15 to 16 | 25 | 200 | 200 | 12.5 | 200 | 0.8 | zone of inhibition at 4 µg/disc [1]: 21 mm; MIC ([9]; Staphylococcus aureus): 12.5 to 25 µg/mL; MIC ([12]; Enterococcus faecalis, ATCC33186, read-out: MIC E.f.): 6.3 to 12.5 µg/mL; MIC ([13]; Streptococcus pneumoniae (R6)): 1.6 to 3.1 µg/mL; MIC [21]: 0.8 to 1.6 µg/mL
4 | CN[C@@H]1[C@H](O)[C@H](NC)[C@H]2O[C@]3(O)[C@H](O[C@@H]2[C@H]1O)O[C@H](C)C[C@@]3(O)CNCc1cccc(C)n1 [compound 22, 3′-(A)-3′-[(6-Methyl)-2-pyridinylmethylamino)dihydrospectinomycin Tetrahydrobromide] | 100 | > 200 | 14 | > 200 | > 200 | 50 | 50 | 100 to 200 | 25 | 50 | > 200 | 12.5 | 50 to 100 | 10 | 12.5 | > 200 | > 200 | 6.3 | > 200 | 3.1 | MIC ([9]; Staphylococcus aureus (NRS70)): ≥ 200 µg/mL; zone of inhibition at 4 µg/disc [11]: 11 mm; MIC [12, 24]: 25 µg/mL; MIC ([13]; Streptococcus pneumoniae (R6)): 6.3 to 12.5 µg/mL; MIC [21]: 6.3 µg/mL
